Test results taken from patent publication US20250353891A1 (MEDIMMUNE LIMITED, priority 2022, published 2025).
Read-outs that look alike come from different tables or passages of the source. Starred links: 1 amine or outer side, 2 acyl side, 3 side chain; linkers in the order of their positions; H or OH if unused. Non-standard residues stand in square brackets, D forms with d. Residues, ends and D or L forms follow the SMILES beside them. Groups on a side chain read outwards from the residue. *: point of attachment. C20 diacid = O=C(O)CCCCCCCCCCCCCCCCCCC(=O)*; C18 diacid = O=C(O)CCCCCCCCCCCCCCCCC(=O)*; γGlu = O=C(O)[C@H](CCC(=O)[*:2])N[*:1]; αMeF = C[C@](N)(Cc1ccccc1)C(=O)O; AEEA = NCCOCCOCC(=O)O; Aib = CC(C)(N)C(=O)O

What was measured:
[1] = target: human glucagon receptor (hGCGR) (Homo sapiens, UniProt P47871); test: cAMP production (HTRF) in CHO cells expressing hGCGR; format: cell-based; design: expressed in transfected cells; conditions: cAMP in CHO hGCGR cells, geometric mean, read-out: hGluc-R EC50
Method in brief: (§1)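 Read-out: HTRF cAMP (anti-cAMP cryptate donor, cAMP-d2 acceptor in conjugate/lysis buffer), converted to % Delta F and fitted by 4-parameter logistic for EC50. Cell densities were 1×10^5 cells/mL (hGLP-1R) or 2×10^5 cells/mL (hGCGR). Stimulation lasted 30 min at room temperature.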

[2] = target: human GLP-1 receptor (hGLP-1R) (Homo sapiens, UniProt P43220); test: cAMP production (HTRF) in CHO cells expressing hGLP-1R; format: cell-based; design: expressed in transfected cells; conditions: for EC50: cAMP in CHO hGLP-1R cells, geometric mean, read-out: hGLP-1R EC50; for % Relative Potency Ratio: % GLP-1R activity relative to GLP-1 / % GlucR activity relative to glucagon
Method in brief: as §1

[3] = Table 6, peptides modified at position 17
[4] = Table 7, peptides modified at position 20

Sequence of human glucagon receptor (hGCGR) (P47871 26-477): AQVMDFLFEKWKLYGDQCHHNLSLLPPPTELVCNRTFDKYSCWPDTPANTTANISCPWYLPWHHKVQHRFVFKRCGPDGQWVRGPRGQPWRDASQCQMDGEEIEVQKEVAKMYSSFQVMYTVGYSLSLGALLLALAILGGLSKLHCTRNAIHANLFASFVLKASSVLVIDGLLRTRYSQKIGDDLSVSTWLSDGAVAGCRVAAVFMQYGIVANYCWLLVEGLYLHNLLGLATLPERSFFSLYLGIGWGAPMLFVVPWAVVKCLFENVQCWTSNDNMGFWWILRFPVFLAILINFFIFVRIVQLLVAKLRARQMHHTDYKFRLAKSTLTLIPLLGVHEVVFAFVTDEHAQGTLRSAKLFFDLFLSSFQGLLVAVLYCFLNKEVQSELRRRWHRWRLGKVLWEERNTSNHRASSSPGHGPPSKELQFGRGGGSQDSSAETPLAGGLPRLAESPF
Sequence of human GLP-1 receptor (hGLP-1R) (P43220 24-463): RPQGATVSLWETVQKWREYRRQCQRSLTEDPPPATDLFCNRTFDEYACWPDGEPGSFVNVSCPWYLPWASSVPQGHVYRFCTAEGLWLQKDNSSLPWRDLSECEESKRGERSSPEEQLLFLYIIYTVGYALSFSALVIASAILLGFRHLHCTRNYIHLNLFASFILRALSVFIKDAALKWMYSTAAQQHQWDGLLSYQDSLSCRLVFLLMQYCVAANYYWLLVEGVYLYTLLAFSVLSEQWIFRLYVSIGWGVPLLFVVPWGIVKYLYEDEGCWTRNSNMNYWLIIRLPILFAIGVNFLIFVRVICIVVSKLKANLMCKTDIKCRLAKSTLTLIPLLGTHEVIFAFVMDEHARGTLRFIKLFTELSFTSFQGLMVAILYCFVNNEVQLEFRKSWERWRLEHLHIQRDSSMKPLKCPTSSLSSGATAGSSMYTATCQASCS

Row | SMILES | EC50 [1, 3] [nM] | EC50 [2, 3] [nM] | % Relative Potency Ratio ([2]; Table 6) | EC50 [1, 4] [nM] | EC50 [2, 4] [nM] | % Relative Potency Ratio ([2]; Table 7)
1 | CC(C)C[C@H](NC(=O)[C@H](CC(C)C)NC(=O)[C@H](Cc1c[nH]c2ccccc12)NC(=O)[C@H](CCCNC(=N)N)NC(=O)[C@@H](NC(=O)[C@H](Cc1ccccc1)NC(=O)[C@H](CC(=O)O)NC(=O)[C@H](CCC(N)=O)NC(=O)[C@H](C)NC(=O)[C@H](CCCNC(=N)N)NC(=O)[C@H](CCCCNC(=O)COCCOCCNC(=O)COCCOCCNC(=O)CC[C@H](NC(=O)CCCCCCCCCCCCCCCCCCC(=O)O)C(=O)O)NC(=O)[C@H](CO)NC(=O)[C@H](CCC(=O)O)NC(=O)[C@H](CC(C)C)NC(=O)[C@](C)(Cc1ccccc1)NC(=O)[C@H](CCCCN)NC(=O)[C@H](CO)NC(=O)[C@@H](NC(=O)[C@H](CC(=O)O)NC(=O)[C@H](CO)NC(=O)[C@@H](NC(=O)[C@H](Cc1ccccc1)NC(=O)[C@@H](NC(=O)CNC(=O)[C@H](CCC(N)=O)NC(=O)C(C)(C)NC(=O)[C@@H](N)Cc1c[nH]cn1)[C@@H](C)O)[C@@H](C)O)C(C)C)C(C)C)C(=O)N[C@@H](C)C(=O)NC(C)(C)C(=O)NCC(N)=O [Peptide 516] (H-H[Aib]QGTFTSDVSK[αMeF]LESK([AEEA-AEEA-γGlu-C20 diacid])RAQDFVRWLLA[Aib]G-NH2; N-terminus assumed) | 0.785 | 0.137 | 11.3 | – | – | –
2 | CC[C@H](C)[C@H](NC(=O)[C@H](Cc1ccccc1)NC(=O)[C@H](CCC(=O)O)NC(=O)[C@H](CCCNC(=N)N)NC(=O)[C@H](C)NC(=O)[C@H](C)NC(=O)[C@H](CCCCNC(=O)COCCOCCNC(=O)COCCOCCNC(=O)CC[C@H](NC(=O)CC[C@H](NC(=O)CCCCCCCCCCCCCCCCC(=O)O)C(=O)O)C(=O)O)NC(=O)[C@H](C)NC(=O)[C@H](CCC(=O)O)NC(=O)[C@H](CC(C)C)NC(=O)[C@](C)(Cc1ccccc1)NC(=O)[C@H](CCCCN)NC(=O)[C@H](CO)NC(=O)[C@@H](NC(=O)[C@H](CC(=O)O)NC(=O)[C@H](CO)NC(=O)[C@@H](NC(=O)[C@H](Cc1ccccc1)NC(=O)[C@@H](NC(=O)CNC(=O)[C@H](CCC(N)=O)NC(=O)C(C)(C)NC(=O)[C@@H](N)Cc1c[nH]cn1)[C@@H](C)O)[C@@H](C)O)C(C)C)C(=O)N[C@@H](C)C(=O)N[C@@H](Cc1c[nH]c2ccccc12)C(=O)N[C@@H](CC(C)C)C(=O)N[C@@H](CC(C)C)C(=O)N[C@@H](CCC(=O)O)C(=O)N[C@H](C(N)=O)[C@@H](C)O [Peptide 517] (H-H[Aib]QGTFTSDVSK[αMeF]LEAK([AEEA-AEEA-γGlu-γGlu-C18 diacid])AAREFIAWLLET-NH2) | 0.738 | 0.146 | 10.0 | – | – | –
3 | CC(C)C[C@H](NC(=O)[C@H](Cc1c[nH]c2ccccc12)NC(=O)[C@H](CCC(N)=O)NC(=O)[C@@H](NC(=O)[C@H](Cc1ccccc1)NC(=O)[C@H](CC(=O)O)NC(=O)[C@H](CCCNC(=N)N)NC(=O)[C@H](C)NC(=O)[C@H](CCCNC(=N)N)NC(=O)[C@H](CCCCNC(=O)COCCOCCNC(=O)COCCOCCNC(=O)CC[C@H](NC(=O)CC[C@H](NC(=O)CCCCCCCCCCCCCCCCC(=O)O)C(=O)O)C(=O)O)NC(=O)[C@@H](NC(=O)[C@H](CC(=O)O)NC(=O)[C@H](CC(C)C)NC(=O)[C@](C)(Cc1ccccc1)NC(=O)[C@H](CCCCN)NC(=O)[C@H](CO)NC(=O)[C@@H](NC(=O)[C@H](CC(=O)O)NC(=O)[C@H](CO)NC(=O)[C@@H](NC(=O)[C@H](Cc1ccccc1)NC(=O)[C@@H](NC(=O)CNC(=O)[C@H](CCC(N)=O)NC(=O)C(C)(C)NC(=O)[C@@H](N)Cc1c[nH]cn1)[C@@H](C)O)[C@@H](C)O)C(C)C)[C@@H](C)O)C(C)C)C(=O)N[C@@H](CC(C)C)C(=O)N[C@@H](CCC(=O)O)C(=O)NC(C)(C)C(=O)NCC(=O)O [Peptide 518] | 0.0773 | 0.031 | 4.9 | – | – | –
4 | CC(C)C[C@H](NC(=O)[C@H](Cc1c[nH]c2ccccc12)NC(=O)[C@H](CCC(N)=O)NC(=O)[C@@H](NC(=O)[C@H](Cc1ccccc1)NC(=O)[C@H](CC(=O)O)NC(=O)[C@H](CCCNC(=N)N)NC(=O)[C@H](C)NC(=O)[C@H](CCCNC(=N)N)NC(=O)[C@H](CCCCNC(=O)CC[C@H](NC(=O)CC[C@H](NC(=O)COCCOCCNC(=O)COCCOCCNC(=O)CC[C@H](NC(=O)CC[C@H](NC(=O)CCCCCCCCCCCCCCCCC(=O)O)C(=O)O)C(=O)O)C(=O)O)C(=O)O)NC(=O)[C@@H](NC(=O)[C@H](CC(=O)O)NC(=O)[C@H](CC(C)C)NC(=O)[C@](C)(Cc1ccccc1)NC(=O)[C@H](CCCCN)NC(=O)[C@H](CO)NC(=O)[C@@H](NC(=O)[C@H](CC(=O)O)NC(=O)[C@H](CO)NC(=O)[C@@H](NC(=O)[C@H](Cc1ccccc1)NC(=O)[C@@H](NC(=O)CNC(=O)[C@H](CCC(N)=O)NC(=O)C(C)(C)NC(=O)[C@@H](N)Cc1c[nH]cn1)[C@@H](C)O)[C@@H](C)O)C(C)C)[C@@H](C)O)C(C)C)C(=O)N[C@@H](CC(C)C)C(=O)N[C@@H](CCC(=O)O)C(=O)NC(C)(C)C(=O)NCC(=O)O [Peptide 519] | 0.386 | 0.172 | 4.4 | – | – | –
5 | CC(C)C[C@H](NC(=O)[C@H](Cc1c[nH]c2ccccc12)NC(=O)[C@H](CCC(N)=O)NC(=O)[C@@H](NC(=O)[C@H](Cc1ccccc1)NC(=O)[C@H](CC(=O)O)NC(=O)[C@H](CCCNC(=N)N)NC(=O)[C@H](C)NC(=O)[C@H](CCCNC(=N)N)NC(=O)[C@H](CCCCNC(=O)CC[C@H](NC(=O)CC[C@H](NC(=O)COCCOCCNC(=O)COCCOCCNC(=O)CC[C@H](NC(=O)CC[C@H](NC(=O)CCCCCCCCCCCCCCCCCCC(=O)O)C(=O)O)C(=O)O)C(=O)O)C(=O)O)NC(=O)[C@@H](NC(=O)[C@H](CC(=O)O)NC(=O)[C@H](CC(C)C)NC(=O)[C@](C)(Cc1ccccc1)NC(=O)[C@H](CCCCN)NC(=O)[C@H](CO)NC(=O)[C@@H](NC(=O)[C@H](CC(=O)O)NC(=O)[C@H](CO)NC(=O)[C@@H](NC(=O)[C@H](Cc1ccccc1)NC(=O)[C@@H](NC(=O)CNC(=O)[C@H](CCC(N)=O)NC(=O)C(C)(C)NC(=O)[C@@H](N)Cc1c[nH]cn1)[C@@H](C)O)[C@@H](C)O)C(C)C)[C@@H](C)O)C(C)C)C(=O)N[C@@H](CC(C)C)C(=O)N[C@@H](CCC(=O)O)C(=O)NC(C)(C)C(=O)NCC(=O)O [Peptide 520] | 1.62 | 0.543 | 5.9 | – | – | –
6 | CC(C)C[C@H](NC(=O)[C@H](Cc1c[nH]c2ccccc12)NC(=O)[C@H](CCC(N)=O)NC(=O)[C@@H](NC(=O)[C@H](Cc1ccccc1)NC(=O)[C@H](CC(=O)O)NC(=O)[C@H](CCCCNC(=O)COCCOCCNC(=O)COCCOCCNC(=O)CC[C@H](NC(=O)CCCCCCCCCCCCCCCCC(=O)O)C(=O)O)NC(=O)[C@H](C)NC(=O)[C@H](CCCNC(=N)N)NC(=O)[C@H](CCC(=O)O)NC(=O)[C@H](CO)NC(=O)[C@H](CC(=O)O)NC(=O)[C@H](CC(C)C)NC(=O)[C@](C)(Cc1ccccc1)NC(=O)[C@H](CCCCN)NC(=O)[C@H](CO)NC(=O)[C@@H](NC(=O)[C@H](CC(=O)O)NC(=O)[C@H](CO)NC(=O)[C@@H](NC(=O)[C@H](Cc1ccccc1)NC(=O)[C@@H](NC(=O)CNC(=O)[C@H](CCC(N)=O)NC(=O)C(C)(C)NC(=O)[C@@H](N)Cc1c[nH]cn1)[C@@H](C)O)[C@@H](C)O)C(C)C)C(C)C)C(=O)N[C@@H](CCC(=O)O)C(=O)N[C@@H](C)C(=O)NCC(=O)NCC(=O)O [Peptide 521] | – | – | – | 10.1 | 0.677 | 29.5
7 | CC(C)C[C@H](NC(=O)[C@H](Cc1c[nH]c2ccccc12)NC(=O)[C@H](C)NC(=O)[C@@H](NC(=O)[C@H](Cc1ccccc1)NC(=O)[C@H](CC(=O)O)NC(=O)[C@H](CCCCNC(=O)COCCOCCNC(=O)COCCOCCNC(=O)CC[C@H](NC(=O)CCCCCCCCCCCCCCCCC(=O)O)C(=O)O)NC(=O)[C@H](C)NC(=O)[C@H](CCCNC(=N)N)NC(=O)[C@H](CCC(=O)O)NC(=O)[C@H](CO)NC(=O)[C@H](CC(=O)O)NC(=O)[C@H](CC(C)C)NC(=O)[C@](C)(Cc1ccccc1)NC(=O)[C@H](CCCCN)NC(=O)[C@H](CO)NC(=O)[C@@H](NC(=O)[C@H](CC(=O)O)NC(=O)[C@H](CO)NC(=O)[C@@H](NC(=O)[C@H](Cc1ccccc1)NC(=O)[C@@H](NC(=O)CNC(=O)[C@H](CCC(N)=O)NC(=O)C(C)(C)NC(=O)[C@@H](N)Cc1c[nH]cn1)[C@@H](C)O)[C@@H](C)O)C(C)C)C(C)C)C(=O)N[C@@H](CCC(=O)O)C(=O)N[C@@H](C)C(=O)NCC(=O)NCC(=O)O [Peptide 522] | – | – | – | 6.36 | 0.508 | 24.8
8 | CC(C)C[C@H](NC(=O)[C@H](Cc1c[nH]c2ccccc12)NC(=O)[C@H](C)NC(=O)[C@@H](NC(=O)[C@H](Cc1ccccc1)NC(=O)[C@H](CC(=O)O)NC(=O)[C@H](CCCCNC(=O)COCCOCCNC(=O)COCCOCCNC(=O)CC[C@H](NC(=O)CCCCCCCCCCCCCCCCCCC(=O)O)C(=O)O)NC(=O)[C@H](C)NC(=O)[C@H](CCCNC(=N)N)NC(=O)[C@H](CCC(=O)O)NC(=O)[C@H](CO)NC(=O)[C@H](CC(=O)O)NC(=O)[C@H](CC(C)C)NC(=O)[C@](C)(Cc1ccccc1)NC(=O)[C@H](CCCCN)NC(=O)[C@H](CO)NC(=O)[C@@H](NC(=O)[C@H](CC(=O)O)NC(=O)[C@H](CO)NC(=O)[C@@H](NC(=O)[C@H](Cc1ccccc1)NC(=O)[C@@H](NC(=O)CNC(=O)[C@H](CCC(N)=O)NC(=O)C(C)(C)NC(=O)[C@@H](N)Cc1c[nH]cn1)[C@@H](C)O)[C@@H](C)O)C(C)C)C(C)C)C(=O)N[C@@H](CCC(=O)O)C(=O)N[C@@H](C)C(=O)NCC(=O)NCC(=O)O [Peptide 523] | – | – | – | > 24.7 | 0.615 | –
